# Measured values as given in ChEMBL document CHEMBL5608174, “Synthesis and biological evaluation of 4-phenyl-5-quinolinyl substituted isoxazole analogues as potent cytotoxic and tubulin polymerization inhibitors against ESCC” (Eur J Med Chem, 2024).
# The source made the active and inactive calls. The calls are words filed in the database; no cut-off is given here.
# Key:
# KYSE-30 [1] = assay: Induction of apoptosis in human KYSE-30 cells assessed as viable cells at 5 nmol/L incubated for 48 hrs by Annexin V-FITC/PI staining based flow cytometry analysis (reference value: 88.76 %); assay type: functional; details: read-out: Activity
# KYSE-30 [2] = assay: Induction of apoptosis in human KYSE-30 cells assessed as viable cells at 10 nmol/L incubated for 48 hrs by Annexin V-FITC/PI staining based flow cytometry analysis (reference value: 88.76 %); assay type: functional; details: read-out: Activity
# KYSE-70 cell line [3] = assay: Induction of apoptosis in human KYSE-70 cells assessed as late apoptotic cells at 10 nmol/L incubated for 48 hrs by Annexin V-FITC/PI staining based flow cytometry analysis (reference value: 3.01%); assay type: functional
# KYSE-30 [4] = assay: cells; details: Homo sapiens, KYSE-30, 48 h
# Description: Antiproliferative activity against human KYSE-30 cells assessed as inhibition of cell proliferation incubated for 48 hrs by MTT assay
# Tubulin (Homo sapiens) [5] = biological target: T1, Tubulin (Homo sapiens) (UniProt P68371+Q9H4B7+P0DPH7+P68366+Q13509+Q71U36+P04350+Q3ZCM7+P07437+P68363+Q9BQE3+Q6PEY2+Q13885+Q9BVA1+Q9BUF5); assay: Inhibition of tubulin polymerization in human KYSE-70 cells assessed as reduction in filamentous microtubule structure formation at 5 to 20 nmol/L incubated for 24 hrs by DAPI staining based fluorescence microscopic analysis; assay type: cell-based; details: dose 5-20 nmol/L
# Sus scrofa = organism: Sus scrofa; assay: Inhibition of porcine brain tubulin polymerization measured every 30 secs for 120 times in the presence of GTP by fluorescence based assay; details: time 60.0 min
# KYSE-70 cell line [6] = assay: Inhibition of human KYSE-70 cells proliferation at 5 to 20 nmol/L incubated for 48 hrs by real time cellular analysis; assay type: functional, cell-based; details: dose 5-20 nmol/L
# Tubulin (Homo sapiens) [7] = biological target: T1, Tubulin (Homo sapiens); assay: Inhibition of tubulin polymerization in human KYSE-70 cells assessed as effect on mitotic phase at 5 to 20 nmol/L incubated for 24 hrs by DAPI staining based fluorescence microscopic analysis; assay type: cell-based; details: dose 5-20 nmol/L
# KYSE-30 [8] = assay: Induction of apoptosis in human KYSE-30 cells assessed as early apoptotic cells at 20 nmol/L incubated for 48 hrs by Annexin V-FITC/PI staining based flow cytometry analysis (reference value: 4.38 %); assay type: functional
# KYSE-30 [9] = assay: Induction of apoptosis in human KYSE-30 cells assessed as necrotic cells at 20 nmol/L incubated for 48 hrs by Annexin V-FITC/PI staining based flow cytometry analysis (reference value: 1.59 %); assay type: functional
# KYSE-30 [10] = assay: Inhibition of cell migration in human KYSE-30 cells at 2 to 6 nmol/L incubated upto 48 hrs by wound healing assay; assay type: functional, cell-based; details: dose 2-6 nmol/L
# [11] = Toxicity in female BALB/c-nu nude mouse xenografted with human KYSE-30 cells assessed as effect on serum creatinine level at 6 to 12 mg/kg, ip administered for 15 days by biochemical analysis; assay type: organism-based; details: in vivo, 360 h, dose 6-12 mg/kg, time 15 day
# KYSE-70 cell line [12] = assay: Induction of apoptosis in human KYSE-70 cells assessed as late apoptotic cells at 5 nmol/L incubated for 48 hrs by Annexin V-FITC/PI staining based flow cytometry analysis (reference value: 3.01%); assay type: functional
# Tubulin (Homo sapiens) [13] = biological target: T1, Tubulin (Homo sapiens); assay: Inhibition of tubulin polymerization in human KYSE-70 cells assessed as multinucleation of cells at 5 to 20 nmol/L incubated for 24 hrs by DAPI staining based fluorescence microscopic analysis; assay type: cell-based; details: dose 5-20 nmol/L
# KYSE-30 [14] = assay: Induction of morphological changes in human KYSE-30 cells assessed as decrease in cell density at 5 to 20 nmol/L incubated for 48 hrs by Calcein AM/PI staining based inverted fluorescence microscopic analysis; assay type: functional; details: dose 5-20 nmol/L
# KYSE-30 [15] = assay: Induction of morphological changes in human KYSE-30 cells assessed as increase in proportion of dead cells at 5 to 20 nmol/L incubated for 48 hrs by Calcein AM/PI staining based inverted fluorescence microscopic analysis; assay type: functional, cell-based; details: dose 5-20 nmol/L
# [16] = test system: Esophageal squamous cell carcinoma cell; assay: Antiproliferative activity against human Esophageal squamous cell carcinoma cells assessed as reduction in EdU-positive cells at 5 to 20 nmol/L incubated for 48 hrs by EdU staining based inverted fluorescence microscopic analysis; assay type: functional; details: dose 5-20 nmol/L
# [17] = Cytotoxicity against HUVEC cells assessed as inhibition of cell growth incubated for 48 hrs by MTT assay; assay type: toxicity, cell-based; details: human
# KYSE-30 [18] = assay: Induction of morphological changes in human KYSE-30 cells assessed as deformation at 5 to 20 nmol/L incubated for 48 hrs by Bright field microscopic analysis; assay type: functional, cell-based; details: dose 5-20 nmol/L
# KYSE-70 cell line [19] = assay: Antiproliferative activity against human KYSE-70 cells assessed as inhibition of cell growth incubated for 48 hrs by MTT assay; assay type: functional, cell-based; details: KYSE-70, 48 h
# [20] = Toxicity in female BALB/c-nu nude mouse xenografted with human KYSE-30 cells assessed as effect on serum AST level at 6 to 12 mg/kg, ip administered for 15 days by biochemical analysis; assay type: organism-based; details: in vivo, 360 h, dose 6-12 mg/kg, time 15 day
# KYSE-30 [21] = assay: Upregulation of p-Histone H3 level in human KYSE-30 cells at 5 to 20 nmol/L by Western blot analysis; assay type: functional, cell-based; details: dose 5-20 nmol/L
# [22] = test system: Esophageal squamous cell carcinoma cell; assay: Induction of apoptosis in human Esophageal squamous cell carcinoma cell assessed as increase in cleaved-PARP level at 5 to 20 nmol/L incubated for 48 hrs by Western blot analysis; assay type: functional, cell-based; details: dose 5-20 nmol/L
# [23] = Toxicity in female BALB/c-nu nude mouse xenografted with human KYSE-30 cells assessed as change in liver pathology at 6 to 12 mg/kg, ip administered for 15 days by H and E staining based analysis; assay type: organism-based; details: in vivo, 360 h, dose 6-12 mg/kg, time 15 day
# Tubulin (Homo sapiens) [24] = biological target: T1, Tubulin (Homo sapiens); assay: Inhibition of tubulin polymerization in human KYSE-30 cells assessed as reduction in filamentous microtubule structure formation at 5 to 20 nmol/L incubated for 24 hrs by DAPI staining based fluorescence microscopic analysis; assay type: cell-based; details: dose 5-20 nmol/L
# KYSE-30 [25] = assay: Induction of apoptosis in human KYSE-30 cells assessed as necrotic cells at 5 nmol/L incubated for 48 hrs by Annexin V-FITC/PI staining based flow cytometry analysis (reference value: 1.59 %); assay type: functional
# KYSE-30 [26] = assay: Induction of apoptosis in human KYSE-30 cells assessed as late apoptotic cells at 10 nmol/L incubated for 48 hrs by Annexin V-FITC/PI staining based flow cytometry analysis (reference value: 5.27 %); assay type: functional
# [27] = Toxicity in female BALB/c-nu nude mouse xenografted with human KYSE-30 cells assessed as effect on serum total bilirubin level at 6 to 12 mg/kg, ip administered for 15 days by biochemical analysis; assay type: organism-based; details: in vivo, 360 h, dose 6-12 mg/kg, time 15 day
# KYSE-70 cell line [28] = assay: Induction of apoptosis in human KYSE-70 cells assessed as late apoptotic cells at 20 nmol/L incubated for 48 hrs by Annexin V-FITC/PI staining based flow cytometry analysis (reference value: 3.01%); assay type: functional
# [29] = Toxicity in female BALB/c-nu nude mouse xenografted with human KYSE-30 cells assessed as effect on serum blood urea nitrogen level at 6 to 12 mg/kg, ip administered for 15 days by biochemical analysis; assay type: organism-based; details: in vivo, 360 h, dose 6-12 mg/kg, time 15 day
# [30] = test system: Esophageal squamous cell carcinoma cell; assay: Induction of apoptosis in human Esophageal squamous cell carcinoma cell assessed as […] of Bax level at 5 to 20 nmol/L incubated for 48 hrs by Western blot analysis; assay type: functional, cell-based; details: dose 5-20 nmol/L
# [31] = Toxicity in female BALB/c-nu nude mouse xenografted with human KYSE-30 cells assessed as change in heart pathology at 6 to 12 mg/kg, ip administered for 15 days by H and E staining based analysis; assay type: organism-based; details: in vivo, 360 h, dose 6-12 mg/kg, time 15 day
# KYSE-70 cell line [32] = assay: Inhibition of cell migration in human KYSE-70 cells at 2 to 6 nmol/L incubated upto 48 hrs by wound healing assay; assay type: functional, cell-based; details: dose 2-6 nmol/L
smiles,measurement,setting,value
COc1ccc(-c2cnoc2-c2cc(C)nc3ccccc23)cc1,viability at 0.005 µM,KYSE-30 [1],38.8%
same,viability at 0.01 µM,KYSE-30 [2],37.5%
same,Activity,KYSE-70 cell line [3],14.3%
same,IC50,KYSE-30 [4],13 nM
same,inhibition,Tubulin (Homo sapiens) [5],Active
same,inhibition,Sus scrofa,Active
same,inhibition,KYSE-70 cell line [6],Active
same,inhibition,Tubulin (Homo sapiens) [7],Active
same,Activity,KYSE-30 [8],47.76%
same,Activity,KYSE-30 [9],3.2%
same,inhibition,KYSE-30 [10],Active
same,Activity,[11],Non-Toxic
same,Activity,KYSE-70 cell line [12],6.21%
same,inhibition,Tubulin (Homo sapiens) [13],Active
same,Activity,KYSE-30 [14],Active
same,Activity,KYSE-30 [15],Active
same,Activity,[16],Active
same,IC50 at 48 h,[17],> 710 nM
same,Activity,KYSE-30 [18],Active
same,IC50,KYSE-70 cell line [19],7.79 nM
same,Activity,[20],Non-Toxic
same,Activity,KYSE-30 [21],Active
same,Activity,[22],Active
same,Activity,[23],Non-Toxic
same,inhibition,Tubulin (Homo sapiens) [24],Active
same,Activity,KYSE-30 [25],2.61%
same,Activity,KYSE-30 [26],11.91%
same,Activity,[27],Non-Toxic
same,Activity,KYSE-70 cell line [28],17.48%
same,Activity,[29],Non-Toxic
same,Activity,[30],Active
same,Activity,[31],Non-Toxic
same,inhibition,KYSE-70 cell line [32],Active
